Experiments:
[1] = target: T1, HCV polymerase (NS5B) type 1b (Hepatitis C virus genotype 1b, UniProt P26663); test: Assay of enzyme (HCV polymerase) inhibitory activity, type 1b enzyme; type: biochemical, HCV BK strain (type 1b); conditions: HCV polymerase inhibitory activity IC50, 1b, type 1b enzyme
T1 construct: a region encoding NS5B (J Virol 1991 March, 65(3), 1105-13, 544 amino acids after deletion of 47 amino acids on the C-terminal); 6xHis (C); made in house; host or cells: Escherichia coli
In short: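 IC50 derived from [3H]UTP incorporation into TCA-insoluble RNA, compared with and without test compound. Reaction (25 °C, 60 min, Tris pH 7.5, 5 mM MgCl2): E. coli-expressed 1b NS5B Δ47 with His tag at 0.5 μg/ml, 5 μg/ml run-off substrate RNA, ATP/GTP/CTP 50 μM, UTP 2 μM.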

[2] = target: T2, HCV polymerase (NS5B) type 1a (Hepatitis C virus genotype 1a, UniProt P26664); test: Assay of enzyme (HCV polymerase) inhibitory activity, type 1a enzyme; type: biochemical, HCV type 1a (cloned from the blood of patients); conditions: HCV polymerase inhibitory activity IC50, 1a, type 1a enzyme
T2 construct: made in house; host or cells: Escherichia coli (by the 'similar method' of the 1b enzyme)
In short: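 Reactions ran 60 min at 25° C in 20 mM Tris-HCl pH 7.5, 5 mM MgCl2, 50 mM NaCl, holding genotype 1a NS5B (1.5 μg/ml, Δ47 C-terminus, 6His), substrate RNA 5 μg/ml, UTP 2 μM with tritiated UTP and other NTPs 50 μM. IC50 derived from incorporated radiolabel in filter-trapped RNA relative to uninhibited reaction.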

Row | SMILES | IC50 [1] [µM] | IC50 [2] [µM]
1 | Cc1cc(=O)nc2sc(N3CCN(S(=O)(=O)c4ccc(OC(F)(F)F)cc4)[C@@H](C(=O)NCc4ccc(OC(F)F)cc4)C3)nn12 [Example 1027, (R)-4-(5-methyl-7-oxo-7H-[1,3,4]thiadiazolo[3,2-a]pyrimidin-2-yl)-1-(4-trifluoromethoxy-benzenesulfonyl)-piperazine-2-carboxylic acid 4-difluoromethoxy-benzylamide] | < 0.1 | < 0.1
2 | Cc1cc(=O)nc2sc(N3CCN(S(=O)(=O)c4ccc(C(F)(F)F)cc4)[C@@H](C(=O)NCc4ccc(OC(F)(F)F)cc4)C3)nn12 [Example 1028, (R)-4-(5-methyl-7-oxo-7H-[1,3,4]thiadiazolo[3,2-a]pyrimidin-2-yl)-1-(4-trifluoromethyl-benzenesulfonyl)-piperazine-2-carboxylic acid 4-trifluoromethoxy-benzylamide] | < 0.1 | < 0.1
3 | Cc1nc(C(N)=O)c2sc(N3CCN(S(=O)(=O)c4ccc(OC(F)(F)F)cc4)[C@@H](C(=O)NCc4ccc(OC(F)(F)F)cc4)C3)nc2n1 [Example 1029, 5-methyl-2-[(R)-4-(4-trifluoromethoxy-benzenesulfonyl)-3-(4-trifluoromethoxy-benzylcarbamoyl)-piperazin-1-yl]-thiazolo[4,5-d]pyrimidine-7-carboxylic acid amide] | < 0.1 | 0.1 to 1
4 | Cn1ncc2sc(N3CCN(S(=O)(=O)c4ccc(C(F)(F)F)cc4)[C@@H](C(=O)NCc4ccc(OC(F)(F)F)cc4)C3)nc2c1=O [Example 1030, (R)-4-(5-methyl-4-oxo-4,5-dihydro-thiazolo[4,5-d]pyridazin-2-yl)-1-(4-trifluoromethyl-benzenesulfonyl)-piperazine-2-carboxylic acid 4-trifluoromethoxy-benzylamide] | < 0.1 | < 0.1
5 | O=C(NCc1ccc(OC(F)(F)F)cc1)[C@H]1CN(c2nn3c(=O)c(C(F)(F)F)nnc3s2)CCN1S(=O)(=O)c1ccc(OC(F)(F)F)cc1 [Example 1031, (R)-4-(4-oxo-3-trifluoromethyl-4H-[1,3,4]thiadiazolo[2,3-c][1,2,4]triazin-7-yl)-1-(4-trifluoromethoxy-benzenesulfonyl)-piperazine-2-carboxylic acid 4-trifluoromethoxy-benzylamide] | 0.1 to 1 | 0.1 to 1
6 | Cc1cc(=O)nc2sc(N3CCN(S(=O)(=O)c4ccc(C(F)(F)F)cc4)[C@@H](C(=O)NCc4ccc(OC(F)F)cc4)C3)nn12 [Example 1032, (R)-4-(5-methyl-7-oxo-7H-[1,3,4]thiadiazolo[3,2-a]pyrimidin-2-yl)-1-(4-trifluoromethyl-benzenesulfonyl)-piperazine-2-carboxylic acid 4-difluoromethoxy-benzylamide] | < 0.1 | < 0.1
7 | O=C(O)c1ncc2sc(N3CCN(S(=O)(=O)c4ccc(OC(F)(F)F)cc4)[C@@H](C(=O)NCc4ccc(OC(F)(F)F)cc4)C3)nc2n1 [Example 1033, 2-[(R)-4-(4-trifluoromethoxy-benzenesulfonyl)-3-(4-trifluoromethoxy-benzylcarbamoyl)-piperazin-1-yl]-thiazolo[4,5-d]pyrimidine-5-carboxylic acid] | < 0.1 | < 0.1
8 | Nc1nnnc2nc(N3CCN(S(=O)(=O)c4ccc(OC(F)(F)F)cc4)[C@@H](C(=O)NCc4ccc(OC(F)(F)F)cc4)C3)sc12 [Example 1034, (R)-4-(4-amino-thiazolo[4,5-d][1,2,3]triazin-6-yl)-1-(4-trifluoromethoxy-benzenesulfonyl)-piperazine-2-carboxylic acid 4-trifluoromethoxy-benzylamide] | < 0.1 | < 0.1
9 | COc1nnnc2nc(N3CCN(S(=O)(=O)c4ccc(OC(F)(F)F)cc4)[C@@H](C(=O)NCc4ccc(OC(F)(F)F)cc4)C3)sc12 [Example 1035, (R)-4-(4-methoxy-thiazolo[4,5-d][1,2,3]triazin-6-yl)-1-(4-trifluoromethoxy-benzenesulfonyl)-piperazine-2-carboxylic acid 4-trifluoromethoxy-benzylamide] | < 0.1 | < 0.1
